# Values quoted from earlier work in US20220401366A1, “LONG ACTING NMDA ANTAGONISTS” (Consegna Pharma, Inc., priority 2019, published 2022).
# Conditions: S-ketamine versus R-ketamine
smiles,measurement,value
CN[C@]1(c2ccccc2Cl)CCCCC1=O [S-ketamine],potency relative to R-ketamine,twice as potent as R-ketamine
